Laboratory results published in patent publication US7173063B1, “Topoisomerase poisons for the treatment of proliferative disorders” (Fred Hutchinson Cancer Research Center, priority 2000, dated 2007).

Legend:
ACHN, SW620, A549, MDA-N = assay: Thymidine incorporation toxicity assay in four cancer derived cell lines; assay type: cell-based, human; settings: for correlation between MDR1 activity and toxicity/sensitivity: A549, SW620, ACHN (MDR1 10, 31, 120); for cell line against which most effective: four tumor derived cell lines
Procedure: (§1) Cell lines were grown at 37° C. in an atmosphere of 5% CO2. The chicken pre-B cell line DT40 and its derivatives (Bezzubova, et al., Cell 89: 185–93 (1997), Takata, et al., EMBO Journal 17: 5497–508 (1998), Yamaguchi-Iwai, et al., Molecular & Cellular Biology 18: 6430–5 (1998)) were grown in RPMI containing 10% fetal calf serum and 1% chicken serum. The remaining cell lines were grown in DMEM with 10% fetal calf serum.
(§2) Toxicity assays in mammalian cell lines were performed using tritiated thymidine incorporation as a measure of the number of viable cells. […] Drug toxicity was measured as follows:
(§3) Cells were plated at a density of 500 cells per well in opaque 96 well plates (Packard) in a volume of 135 μL per well of the appropriate media. The plates were incubated overnight to allow cell adherence. Seven two-fold dilutions of the test compounds were added in a volume of 15 μL per well in triplicate, and 15 μL of media containing an appropriate concentration of DMSO was added to control wells in triplicate. Plates were incubated at 37° C. for 96 hours. The media was then replaced with 100 μL per well of the appropriate media containing 2 μCi/mL of (methyl-^3H) thymidine (Amersham Pharmacia Biotech), then plates were incubated for a further 24 hours at 37° C. Cells were washed three times with PBS, then 100 μL per well of scintillant was added (Microscint 20, Packard), and sealed plates were counted in a microplate reader (Packard Topcount). For suspension chicken cells, (methyl-^3H) thymidine was added directly to the drug-containing media at a concentration of 20 μCi/mL (comprising one tenth of the media volume) and incubated overnight. The suspension cells were transferred to a UniFilter GF/C plate (Packard) and washed with PBS in a plate washer (Packard). After drying, 25 μL per well of scintillant (Microscint 20, Packard) was added, and sealed plates were counted. Toxicity is expressed as a percentage of the control counts. For experiments involving shorter exposures to compounds, cells were grown in the presence of compound for the appropriate time, then the media was replaced with fresh drug-free media, and incubation continued for the remainder of 96 hours, followed by the normal tritiated thymidine uptake and washing protocol.
A common mechanism of tumor resistance to chemotherapeutic agents is overexpression of the drug efflux protein MDR1 (Kane, et al., Advances in Drug Research 28: 182–252 (1996), Nooter, et al., Leukemia Research 18: 233–43 (1994)). MDR1 is overexpressed in many tumor derived cell lines (for instance see http://dtp.nci.nih.gov/), and its overexpression inversely correlates with sensitivity to certain compounds (Kane, et al., Advances in Drug Research 28: 182–252 (1996)).

[1] = tested on: DSB repair defective rad50 and rad52 strains of Saccharomyces cerevisiae; assay type: cell-based; settings: relative growth (OD660) vs solvent control
Text: The strains are derived from the A364a genetic background, with the exception of BY4705, which is derived from the S288C background. Gene disruptions were generated by PCR fragment directed replacement (Baudin, et al., Nucleic Acids Research 21: 3329–30 (1993), Guldener, et al., Nucleic Acids Research 24: 2519–24 (1996)). Yeast overexpressing topoisomerase II was constructed by a PCR fragment directed promoter replacement of the topoisomerase II promoter with the yeast GPD promoter flanked upstream by the URA3 marker. All strains (except BY4705) bear the pleitropic drug sensitizing mutations erg6, pdr1, and pdr3 (Balzi, et al., Journal of Bioenergetics & Biomembranes 27: 71–6 (1995), Delaveau, et al, Molecular & General Genetics 244: 501–11 (1994), Gaber, et al., Molecular & Cellular Biology 9: 3447–56 (1989), Saunders, et al., Canadian Journal of Genetics & Cytology, 24: 493–503 (1982). Subik, et al, Current Genetics 10: 665–70 (1986)). The haploid yeast strain BY4705 (Brachmann, et al., Yeast 14: 115–32 (1998)) was used in the experiments described in FIG. 5. Plasmids expressing yeast or human topoisomerase I genes under the GAL promoter (Knab, et al., Journal of Biological Chemistry 268: 22322–30 (1993). Knab, et al., Journal of Biological Chemistry 270: 6141–8 (1995)) were transformed into BY4705 using standard procedures.
Yeast toxicity assays were performed essentially as follows: Exponentially growing cultures of the appropriate strains were diluted in synthetic complete media to a concentration of 7.4×10^4 cells/mL, and aliquots (135 μL) were transferred to each well of clear flat-bottomed 96 well plates. Compounds were added in duplicate or triplicate as 15 μL of the appropriate dilution in 5% DMSO. A 15 μL portion of 5% DMSO was added to control wells. […] Cell growth (OD660) in treated wells was plotted as a percentage of the growth in at least four averaged solvent control wells for the same strain. Camptothecin sodium salt (camptothecin Na) was the agent used in all yeast assays as standard.

Rat1a fibroblasts [2] = assay: Effect of co-treatment with hydroxyurea (HU) on toxicity in Rat1a fibroblasts; assay type: cell-based, rat; settings: six-hour exposure; 0, 0.25, 0.5 or 1 mM HU
Procedure: FIG. 6 illustrates the effect of exposure time and hydroxyurea on the toxicity of compound Ia and compound IIa. […] Rat1a fibroblasts were exposed to compound during growth for either four or six hours, the media was changed, then cells were grown for an appropriate period such that total incubation time was 96 hours, and processed as described in the Example below. […] The bar graph insets for each graph show growth inhibition by HU alone.
as §3
A six-hour exposure was used to test whether the toxicity of the same set of compounds is dependent on ongoing DNA synthesis. […] Thus, in contrast to camptothecin and topotecan, compounds Ia and IIa show no marked time dependency for toxicity (FIG. 6A) and are not inhibited by HU (FIG. 6B), indicating critical mechanistic differences between these compounds and camptothecin.

Rat1a fibroblasts [3] = assay: Effect of exposure time on toxicity in Rat1a fibroblasts; assay type: cell-based, rat; settings: for toxicity of four hour versus six hour exposure: total incubation 96 hours; for toxicity with a two hour exposure: additional experiments
Procedure: as §3

[4] = tested on: chicken pre-B cell line DT40; assay: Thymidine incorporation toxicity assay in isogenic DT40 cells with or without KU70, RAD52, RAD54; assay type: cell-based; settings: for effect of loss of homologous recombination (RAD52 or RAD54) on toxicity: DT40 with or without RAD52 or RAD54
Procedure: as §1, §2, §3
In the case of Topo II poisons, the drug/enzyme complex directly produces a DSB, which could occur in all phases of the cell cycle and can apparently be repaired by either DSB repair pathway. Topo I poisons, however, create a single strand break that is converted to a DSB by passage of a replication fork during ongoing DNA synthesis (D'Arpa, et al., Cancer Research 50: 6919–24 (1990), Hsiang, et al., Cancer Research 49: 5077–82 (1989), Holm, et al., Cancer Research 49: 6365–8 (1989)). It has been proposed that DSB's created in this context can only be repaired by homologous recombination, additionally requiring proteins involved in sister chromatid cohesion (Castano, et al., Genes & Development 10: 2564–76 (1996), Castano, et al., Nucleic Acids Research 24: 2404–10 (1996), Walowsky, et al., Journal of Biological Chemistry 274: 7302–8 (1999)).

purified Topo I = target: T1, purified Topo I (Homo sapiens, UniProt P11387); assay: In vitro assay for DNA strand-break formation in the presence of purified Topo I; assay type: biochemical
T1 sequence (P11387 1-765): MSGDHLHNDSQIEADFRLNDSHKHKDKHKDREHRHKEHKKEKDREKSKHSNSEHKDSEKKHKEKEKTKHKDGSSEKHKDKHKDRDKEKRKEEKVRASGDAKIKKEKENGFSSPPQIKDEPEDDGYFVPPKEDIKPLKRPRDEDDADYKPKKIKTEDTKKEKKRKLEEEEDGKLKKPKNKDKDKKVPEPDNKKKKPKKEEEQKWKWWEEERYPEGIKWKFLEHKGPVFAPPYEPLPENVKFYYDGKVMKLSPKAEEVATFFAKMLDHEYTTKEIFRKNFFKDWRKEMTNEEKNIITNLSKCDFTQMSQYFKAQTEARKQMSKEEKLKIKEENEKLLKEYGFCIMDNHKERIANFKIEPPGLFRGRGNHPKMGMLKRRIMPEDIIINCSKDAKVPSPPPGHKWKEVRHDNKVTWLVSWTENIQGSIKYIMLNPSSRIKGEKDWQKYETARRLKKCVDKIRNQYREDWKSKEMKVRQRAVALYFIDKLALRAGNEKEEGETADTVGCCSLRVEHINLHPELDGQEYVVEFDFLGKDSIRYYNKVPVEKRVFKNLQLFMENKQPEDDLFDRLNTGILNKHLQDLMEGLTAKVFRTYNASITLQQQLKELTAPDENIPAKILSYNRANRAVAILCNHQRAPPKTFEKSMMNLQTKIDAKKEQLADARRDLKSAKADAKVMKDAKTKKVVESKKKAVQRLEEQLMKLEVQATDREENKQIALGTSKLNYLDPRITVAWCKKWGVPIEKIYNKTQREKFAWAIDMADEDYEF

Row | SMILES | correlation between MDR1 activity and toxicity/sensitivity (ACHN, SW620, A549, MDA-N) | cell line against which most effective (ACHN, SW620, A549, MDA-N) | toxicity of four hour versus six hour exposure (Rat1a fibroblasts [3]) | toxicity with a two hour exposure (Rat1a fibroblasts [3]) | effect of loss of homologous recombination (RAD52 or RAD54) on toxicity [4] | also measured
1 | CC(=O)O[C@H]1C(=O)[C@@]2(C)[C@H]([C@H](OC(=O)c3ccccc3)[C@]3(O)C[C@H](OC(=O)[C@H](O)[C@@H](NC(=O)c4ccccc4)c4ccccc4)C(C)=C1C3(C)C)[C@]1(OC(C)=O)CO[C@@H]1C[C@@H]2O [taxol, reference compound] | clear inverse correlation |  |  |  |  | 
2 | O=C1c2c(O)ccc(O)c2C(=O)c2c(NCCNCCO)ccc(NCCNCCO)c21 [mitoxantrone] |  |  |  |  |  | profile of selective toxicity: toxic to rad50 and rad52 strains, not toxic in rad14 or rad18 strains [1]: Agents with this profile include
3 | CC[C@@]1(O)C(=O)OCc2c1cc1n(c2=O)Cc2cc3c(CN(C)C)c(O)ccc3nc2-1 [topotecan, Topotecan, reference compound] | No correlation | most effective against the colon carcinoma derived cell line SW620 | six-hour exposure being much more effective than a four-hour exposure |  |  | inhibition of toxicity by co-treatment with HU (Rat1a fibroblasts [2]): suppresses the toxicity
4 | COc1cc([C@@H]2c3cc4c(cc3[C@@H](O[C@@H]3O[C@@H]5CO[C@@H](C)O[C@H]5[C@H](O)[C@H]3O)[C@H]3COC(=O)[C@H]23)OCO4)cc(OC)c1O [etoposide, reference compound] |  |  | little difference in toxicity | nearly full toxicity | no effect | 
5 | CC[C@@]1(O)C(=O)OCc2c1cc1n(c2=O)Cc2cc3ccccc3nc2-1 [camptothecin, Camptothecin, reference compound] | No correlation | most effective against the colon carcinoma derived cell line SW620 |  | no toxicity | minor effect | camptothecin concentration required in the in vitro assay relative to cell-based assays (purified Topo I): 100 fold; strand-break induction (purified Topo I): does induce strand-break formation; effectiveness of 96 hour exposure relative to four hour exposure (Rat1a fibroblasts [3]): ≤ 100 fold; effect of loss of KU70 on toxicity ([4]; DT40 with or without KU70): unaffected by KU70 expression
